The supplement of paper PMC10307832

How the values were obtained:
Experiment in all cases: relative viability (nuclei count vs DMSO), 5 days (fraction); higher = more cells survive
XMD13-2 + Phenformin = compound: C1CC1C(=O)NC2=NNC3=C2C=CC(=C3)C4=CC(=CC=C4)C(=O)NC5CC5 [XMD13-2] + N=C(N)NC(=N)NCCc1ccccc1 [Phenformin] (partner 250 µM)
In short: (§1)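 Lung cancer cell lines were seeded in 1536-well plates and dosed by pin tool the next day, with either a single drug or a fixed anchor-drug dose combined with five library-drug doses (not always all listed) spaced in √10 steps. Five days later, one step fixed the cells and stained their nuclei (final 0.05% Triton X-100, 1% formaldehyde, 1 ug/ml Hoechst), and nuclei were counted on 4× images. Relative viability is the nuclei count in treated wells divided by the count in vehicle wells, and each value is the median of duplicate plates.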

XMD13-2 + Palbociclib = compound: C1CC1C(=O)NC2=NNC3=C2C=CC(=C3)C4=CC(=CC=C4)C(=O)NC5CC5 [XMD13-2] + CC(=O)c1c(C)c2cnc(Nc3ccc(N4CCNCC4)cn3)nc2n(C2CCCC2)c1=O [Palbociclib] (partner 0.5 µM)
In short: as §1

[1] = compound: Cc1ccc(C(=O)Nc2cccc(C(F)(F)F)c2)cc1Nc1cncc(C(N)=O)c1 [ALW-II-49-7] + CC(=O)c1c(C)c2cnc(Nc3ccc(N4CCNCC4)cn3)nc2n(C2CCCC2)c1=O [Palbociclib] (partner 0.5 µM)
In short: as §1

Dasatinib + Decitabine = compound: Cc1nc(Nc2ncc(C(=O)Nc3c(C)cccc3Cl)s2)cc(N2CCN(CCO)CC2)n1 [Dasatinib] + Nc1ncn([C@H]2C[C@H](O)[C@@H](CO)O2)c(=O)n1 [Decitabine] (partner 2 µM)
In short: as §1

LC-2-ad
relative viability (XMD13-2 + Phenformin; first compound 0.05 µM): 0.586 | relative viability (XMD13-2 + Phenformin; first compound 0.1581 µM): 0.584 | relative viability (XMD13-2 + Phenformin; first compound 0.5 µM): 0.669 | relative viability (XMD13-2 + Phenformin; first compound 1.581 µM): 0.546 | relative viability (XMD13-2 + Phenformin; first compound 5 µM): 0.528 | relative viability (XMD13-2 + Palbociclib; first compound 0.05 µM): 0.504 | relative viability (XMD13-2 + Palbociclib; first compound 0.1581 µM): 0.477 | relative viability (XMD13-2 + Palbociclib; first compound 0.5 µM): 0.538 | relative viability (XMD13-2 + Palbociclib; first compound 1.581 µM): 0.486 | relative viability (XMD13-2 + Palbociclib; first compound 5 µM): 0.47 | relative viability ([1]; first compound 0.08 µM): 0.455 | relative viability ([1]; first compound 0.253 µM): 0.488 | relative viability ([1]; first compound 0.8 µM): 0.435 | relative viability ([1]; first compound 2.53 µM): 0.506 | relative viability ([1]; first compound 8 µM): 0.526 | relative viability (Dasatinib + Decitabine; first compound 0.005 µM): 0.745 | relative viability (Dasatinib + Decitabine; first compound 0.01581 µM): 0.822 | relative viability (Dasatinib + Decitabine; first compound 0.05 µM): 0.781 | relative viability (Dasatinib + Decitabine; first compound 0.1581 µM): 0.744 | relative viability (Dasatinib + Decitabine; first compound 0.5 µM): 0.393

LCLC-97TM1
relative viability (XMD13-2 + Phenformin; first compound 0.05 µM): 0.441 | relative viability (XMD13-2 + Phenformin; first compound 0.1581 µM): 0.441 | relative viability (XMD13-2 + Phenformin; first compound 0.5 µM): 0.425 | relative viability (XMD13-2 + Phenformin; first compound 1.581 µM): 0.492 | relative viability (XMD13-2 + Phenformin; first compound 5 µM): 0.459 | relative viability (XMD13-2 + Palbociclib; first compound 0.05 µM): 0.217 | relative viability (XMD13-2 + Palbociclib; first compound 0.1581 µM): 0.284 | relative viability (XMD13-2 + Palbociclib; first compound 0.5 µM): 0.229 | relative viability (XMD13-2 + Palbociclib; first compound 1.581 µM): 0.219 | relative viability (XMD13-2 + Palbociclib; first compound 5 µM): 0.182 | relative viability ([1]; first compound 0.08 µM): 0.198 | relative viability ([1]; first compound 0.253 µM): 0.215 | relative viability ([1]; first compound 0.8 µM): 0.214 | relative viability ([1]; first compound 2.53 µM): 0.188 | relative viability ([1]; first compound 8 µM): 0.235 | relative viability (Dasatinib + Decitabine; first compound 0.005 µM): 0.203 | relative viability (Dasatinib + Decitabine; first compound 0.01581 µM): 0.224 | relative viability (Dasatinib + Decitabine; first compound 0.05 µM): 0.283 | relative viability (Dasatinib + Decitabine; first compound 0.1581 µM): 0.177 | relative viability (Dasatinib + Decitabine; first compound 0.5 µM): 0.144

LCLC-103H
relative viability (XMD13-2 + Phenformin; first compound 0.05 µM): 0.397 | relative viability (XMD13-2 + Phenformin; first compound 0.1581 µM): 0.357 | relative viability (XMD13-2 + Phenformin; first compound 0.5 µM): 0.357 | relative viability (XMD13-2 + Phenformin; first compound 1.581 µM): 0.326 | relative viability (XMD13-2 + Phenformin; first compound 5 µM): 0.343 | relative viability (XMD13-2 + Palbociclib; first compound 0.05 µM): 0.485 | relative viability (XMD13-2 + Palbociclib; first compound 0.1581 µM): 0.44 | relative viability (XMD13-2 + Palbociclib; first compound 0.5 µM): 0.466 | relative viability (XMD13-2 + Palbociclib; first compound 1.581 µM): 0.477 | relative viability (XMD13-2 + Palbociclib; first compound 5 µM): 0.481 | relative viability ([1]; first compound 0.08 µM): 0.486 | relative viability ([1]; first compound 0.253 µM): 0.533 | relative viability ([1]; first compound 0.8 µM): 0.494 | relative viability ([1]; first compound 2.53 µM): 0.495 | relative viability ([1]; first compound 8 µM): 0.55 | relative viability (Dasatinib + Decitabine; first compound 0.005 µM): 0.69 | relative viability (Dasatinib + Decitabine; first compound 0.01581 µM): 0.7 | relative viability (Dasatinib + Decitabine; first compound 0.05 µM): 0.737 | relative viability (Dasatinib + Decitabine; first compound 0.1581 µM): 0.625 | relative viability (Dasatinib + Decitabine; first compound 0.5 µM): 0.446

LK-2
relative viability (XMD13-2 + Phenformin; first compound 0.05 µM): 0.607 | relative viability (XMD13-2 + Phenformin; first compound 0.1581 µM): 0.496 | relative viability (XMD13-2 + Phenformin; first compound 0.5 µM): 0.455 | relative viability (XMD13-2 + Phenformin; first compound 1.581 µM): 0.334 | relative viability (XMD13-2 + Phenformin; first compound 5 µM): 0.392 | relative viability (XMD13-2 + Palbociclib; first compound 0.05 µM): 0.666 | relative viability (XMD13-2 + Palbociclib; first compound 0.1581 µM): 0.557 | relative viability (XMD13-2 + Palbociclib; first compound 0.5 µM): 0.698 | relative viability (XMD13-2 + Palbociclib; first compound 1.581 µM): 0.776 | relative viability (XMD13-2 + Palbociclib; first compound 5 µM): 0.593 | relative viability ([1]; first compound 0.08 µM): 0.767 | relative viability ([1]; first compound 0.253 µM): 0.487 | relative viability ([1]; first compound 0.8 µM): 0.63 | relative viability ([1]; first compound 8 µM): 0.673 | relative viability (Dasatinib + Decitabine; first compound 0.005 µM): 0.265 | relative viability (Dasatinib + Decitabine; first compound 0.01581 µM): 0.308 | relative viability (Dasatinib + Decitabine; first compound 0.05 µM): 0.174 | relative viability (Dasatinib + Decitabine; first compound 0.1581 µM): 0.159 | relative viability (Dasatinib + Decitabine; first compound 0.5 µM): 0.174

LOU-NH91
relative viability (XMD13-2 + Phenformin; first compound 0.05 µM): 0.83 | relative viability (XMD13-2 + Phenformin; first compound 0.1581 µM): 0.663 | relative viability (XMD13-2 + Phenformin; first compound 0.5 µM): 0.732 | relative viability (XMD13-2 + Phenformin; first compound 1.581 µM): 0.582 | relative viability (XMD13-2 + Phenformin; first compound 5 µM): 0.867 | relative viability (XMD13-2 + Palbociclib; first compound 0.05 µM): 0.541 | relative viability (XMD13-2 + Palbociclib; first compound 0.1581 µM): 0.554 | relative viability (XMD13-2 + Palbociclib; first compound 0.5 µM): 0.561 | relative viability (XMD13-2 + Palbociclib; first compound 1.581 µM): 0.475 | relative viability (XMD13-2 + Palbociclib; first compound 5 µM): 0.507 | relative viability ([1]; first compound 0.08 µM): 0.484 | relative viability ([1]; first compound 0.253 µM): 0.526 | relative viability ([1]; first compound 0.8 µM): 0.517 | relative viability ([1]; first compound 8 µM): 0.564 | relative viability (Dasatinib + Decitabine; first compound 0.005 µM): 0.83 | relative viability (Dasatinib + Decitabine; first compound 0.01581 µM): 0.819 | relative viability (Dasatinib + Decitabine; first compound 0.05 µM): 0.743 | relative viability (Dasatinib + Decitabine; first compound 0.1581 µM): 0.66 | relative viability (Dasatinib + Decitabine; first compound 0.5 µM): 0.421

LU99A
relative viability (XMD13-2 + Phenformin; first compound 0.05 µM): 1.08 | relative viability (XMD13-2 + Phenformin; first compound 0.1581 µM): 0.752 | relative viability (XMD13-2 + Phenformin; first compound 0.5 µM): 0.833 | relative viability (XMD13-2 + Phenformin; first compound 1.581 µM): 0.885 | relative viability (XMD13-2 + Phenformin; first compound 5 µM): 0.852 | relative viability (XMD13-2 + Palbociclib; first compound 0.05 µM): 0.402 | relative viability (XMD13-2 + Palbociclib; first compound 0.1581 µM): 0.38 | relative viability (XMD13-2 + Palbociclib; first compound 0.5 µM): 0.391 | relative viability (XMD13-2 + Palbociclib; first compound 1.581 µM): 0.402 | relative viability (XMD13-2 + Palbociclib; first compound 5 µM): 0.27 | relative viability ([1]; first compound 0.253 µM): 0.403 | relative viability ([1]; first compound 0.8 µM): 0.39 | relative viability ([1]; first compound 2.53 µM): 0.377 | relative viability ([1]; first compound 8 µM): 0.359 | relative viability (Dasatinib + Decitabine; first compound 0.005 µM): 0.827 | relative viability (Dasatinib + Decitabine; first compound 0.01581 µM): 0.819 | relative viability (Dasatinib + Decitabine; first compound 0.05 µM): 0.833 | relative viability (Dasatinib + Decitabine; first compound 0.1581 µM): 0.655 | relative viability (Dasatinib + Decitabine; first compound 0.5 µM): 0.46

LXF-289
relative viability (XMD13-2 + Phenformin; first compound 0.05 µM): 0.538 | relative viability (XMD13-2 + Phenformin; first compound 0.1581 µM): 0.536 | relative viability (XMD13-2 + Phenformin; first compound 0.5 µM): 0.561 | relative viability (XMD13-2 + Phenformin; first compound 1.581 µM): 0.551 | relative viability (XMD13-2 + Phenformin; first compound 5 µM): 0.527 | relative viability (XMD13-2 + Palbociclib; first compound 0.05 µM): 0.627 | relative viability (XMD13-2 + Palbociclib; first compound 0.1581 µM): 0.64 | relative viability (XMD13-2 + Palbociclib; first compound 0.5 µM): 0.535 | relative viability (XMD13-2 + Palbociclib; first compound 1.581 µM): 0.634 | relative viability (XMD13-2 + Palbociclib; first compound 5 µM): 0.612 | relative viability ([1]; first compound 0.08 µM): 0.529 | relative viability ([1]; first compound 0.253 µM): 0.682 | relative viability ([1]; first compound 0.8 µM): 0.625 | relative viability ([1]; first compound 2.53 µM): 0.709 | relative viability ([1]; first compound 8 µM): 0.674 | relative viability (Dasatinib + Decitabine; first compound 0.005 µM): 0.398 | relative viability (Dasatinib + Decitabine; first compound 0.01581 µM): 0.336 | relative viability (Dasatinib + Decitabine; first compound 0.05 µM): 0.31 | relative viability (Dasatinib + Decitabine; first compound 0.1581 µM): 0.358 | relative viability (Dasatinib + Decitabine; first compound 0.5 µM): 0.142

NCI-H23
relative viability (XMD13-2 + Phenformin; first compound 0.05 µM): 1 | relative viability (XMD13-2 + Phenformin; first compound 0.1581 µM): 0.796 | relative viability (XMD13-2 + Phenformin; first compound 0.5 µM): 0.802 | relative viability (XMD13-2 + Phenformin; first compound 1.581 µM): 0.725 | relative viability (XMD13-2 + Phenformin; first compound 5 µM): 0.916 | relative viability (XMD13-2 + Palbociclib; first compound 0.05 µM): 0.572 | relative viability (XMD13-2 + Palbociclib; first compound 0.1581 µM): 0.514 | relative viability (XMD13-2 + Palbociclib; first compound 0.5 µM): 0.502 | relative viability (XMD13-2 + Palbociclib; first compound 1.581 µM): 0.58 | relative viability (XMD13-2 + Palbociclib; first compound 5 µM): 0.658 | relative viability ([1]; first compound 0.08 µM): 0.495 | relative viability ([1]; first compound 0.253 µM): 0.496 | relative viability ([1]; first compound 0.8 µM): 0.573 | relative viability ([1]; first compound 2.53 µM): 0.54 | relative viability ([1]; first compound 8 µM): 0.543 | relative viability (Dasatinib + Decitabine; first compound 0.005 µM): 0.273 | relative viability (Dasatinib + Decitabine; first compound 0.01581 µM): 0.293 | relative viability (Dasatinib + Decitabine; first compound 0.05 µM): 0.286 | relative viability (Dasatinib + Decitabine; first compound 0.1581 µM): 0.27 | relative viability (Dasatinib + Decitabine; first compound 0.5 µM): 0.236
